Experimental data: patent US11939340B2, “CDK inhibitors and their use as pharmaceuticals” (Prelude Therapeutics Incorporated, priority 2022, dated 2024)

What was measured:
CDK4/Cyclin D1 = target: T1, CDK4/Cyclin D1 (Homo sapiens, UniProt P11802); assay: CDK4/CyclinD1 Enzymatic Activity Assay (TR-FRET); assay type: biochemical; settings: CDK4/CyclinD1 1 nM, ATP 2 mM, read-out: CDK4_D1 IC50
T1 construct: purchased ProQinase; host or cells: insect cell
Description: CDK4/CyclinD1 Enzymatic Activity Assay
The inhibitory activity of compounds was evaluated in vitro using TR-FRET assay with white 384-well low volume microplate (Greiner Bio-One). CDK4/Cyclin D1 catalyzed phosphorylation of peptide in the presence and absence of compounds was measured and used in IC50 determination. Recombinant protein complex CDK4/Cyclin D1, expressed from insect cell, was purchased from ProQinase. Testing compounds were dissolved in DMSO at 1 mM and tested in 9-dose IC50 mode. The reaction mixture was prepared by mixing CDK4/CyclinD1 (1 nM final), ULight-4E-BP1 (100 nM final, Perkinelmer, TRF0128-D), and ATP (2 mM final) in assay buffer (20 mM of HEPES pH 7.4, 1 mM of EGTA, 0.05% BSA, 0.005% Tween 20, and 1 mM TCEP). The compound of interest in DMSO was added to each well in 3-fold serial dilution by the dispenser (TECAN D300E) to make a 9.9 μL of reaction mixture. After 20 minutes preincubation at room temperature, 0.1 μL MgCl2 (10 mM final) was added to initiate the reaction. Following a 45 minute incubation at 37° C., the reaction was stopped by addition of 2 μL of quenching buffer consisting of Lance detection buffer (Perkinelmer CR97-100C), LANCE Ultra Europium-anti-P-4E-BP1 (Perkinelmer, TRF0216-D), EDTA, and incubated at room temperature for additional 60 minutes in dark. The reaction signal was measured by Envision multimode plate reader (PerkinElmer, 2102-0010). IC50 values were determined by fitting the data to the standard 4 parameters with Hill Slope using GraphPad Prism software.

CDK2/Cyclin E2 = CDK2/Cyclin E2 (Homo sapiens, UniProt P24941); assay: CDK2/CyclinE2 Enzymatic Activity Assay (TR-FRET); assay type: biochemical; settings: CDK2/CyclinE2 1 nM, ATP 1 mM, read-out: CDK2_El IC50
Description: CDK2/CyclinE2 Enzymatic Activity Assay
The inhibitory activity of compounds was evaluated in vitro using TR-FRET assay with white 384-well low volume microplate (Greiner Bio-One). CDK2/Cyclin E2 catalyzed phosphorylation of peptide in the presence and absence of compounds was measured and used in IC50 determination. Recombinant protein complex CDK2/Cyclin E2, expressed from insect cell, was purchased from ProQinase. Testing compounds were dissolved in DMSO at 1 mM and tested in 9-dose IC50 mode. The reaction mixture was prepared by mixing CDK2/CyclinE2 (1 nM final), ULight-4E-BP1 (50 nM final, Perkinelmer, TRF0128-D), and ATP (1 mM final) in assay buffer (20 mM of HEPES pH 7.4, 1 mM of EGTA, 0.05% BSA, 0.005% Tween 20, and 1 mM TCEP). The compound of interest in DMSO was added to each well in 3-fold serial dilution by dispenser (TECAN D300E) to make a 9.9 μL of reaction mixture. After 20 minutes preincubation at room temperature, 0.1 μL MgCl2 (10 mM final) was added to initiate the reaction. Following a 45 minute incubation at 37° C., the reaction was stopped by addition of 2 μL of quenching buffer consisting of Lance detection buffer (Perkinelmer CR97-100C), LANCE Ultra Europium-anti-P-4E-BP1 (Perkinelmer, TRF0216-D), EDTA, and incubate at room temperature for additional 60 minutes in the dark. The reaction signal was measured by Envision multimode plate reader (PerkinElmer, 2102-0010). IC50 values were determined by fitting the data to the standard 4 parameters with Hill Slope using GraphPad Prism software.

pRB in OVCAR3 cells = assay: pRB ICW Assay in OVCAR3 Cells; assay type: cell-based; settings: Homo sapiens, OVCAR-3, incubated with compound for 2 hours, read-out: OVCAR3 p-RB ICW IC50
Description: pRB ICW Assay in OVCAR3 Cells
OVCAR3 cells were maintained in RPMI (Corning, Catalog #: 10-040-CV) supplemented with 10% v/v FBS (Gibco, Catalog #: 26140-079), 1% v/v Penicillin Streptomycin (Gibco, Catalog #15140-122.) OVCAR3 cells grown at log phase were trypsinized, counted, and resuspended in fresh medium to reach a final density of 6.7e4 cells/mL and 75 μL of culture were dispensed into a 384-well plate (Falcon, cat #353962) using a Multidrop Combi dispenser (Thermo Scientific). The next day, compounds were dispensed as a 9-point, ½ log serial dilution using a Tecan digital dispenser (D300e), and cells were incubated with compound for 2 hours in a humidified incubator at 37° C. A reference compound at a final concentration of 10 μM was used as a control for maximum inhibition. Each compound was tested in duplicates for each experiment. At the end of the incubation, 25 μL of 16% paraformaldehyde (Electron Microscopy, cat #15710) was slowly added to each well and the plate was incubated at room temperature (RT) for 30 minutes to fix cells. Cells were then permeabilized by incubating with 50 μL/well of wash buffer (lx PBS with 0.1% Triton X-100) 5×5 minutes, followed by 1 hour blocking with 30 μL/well of Odyssey blocking buffer (Li—COR, cat #927-40000), at RT. Anti-phosphor RB antibody (Cell signaling 8516S) was diluted 1:1000 in Odyssey blocking buffer and 20 μL was added to all wells and incubated overnight in 4° C. with gently rocking. The next day, cells were washed 5×5 min with 50 μL/well of wash buffer, followed with 1 hour incubation with secondary antibody and DRAQ5 diluted in Odyssey blocking buffer (1:500 dilution for secondary antibody and 1:2000 dilution for DRAQ5), 5×5 min washes, and one last wash with water. Plates were dried in 37° C. oven for 5 minutes and scanned using Li—COR Odyssey CLx imaging system to acquire intensities at 700 and 800 nm channels.

T1 sequence (P11802 whole entry): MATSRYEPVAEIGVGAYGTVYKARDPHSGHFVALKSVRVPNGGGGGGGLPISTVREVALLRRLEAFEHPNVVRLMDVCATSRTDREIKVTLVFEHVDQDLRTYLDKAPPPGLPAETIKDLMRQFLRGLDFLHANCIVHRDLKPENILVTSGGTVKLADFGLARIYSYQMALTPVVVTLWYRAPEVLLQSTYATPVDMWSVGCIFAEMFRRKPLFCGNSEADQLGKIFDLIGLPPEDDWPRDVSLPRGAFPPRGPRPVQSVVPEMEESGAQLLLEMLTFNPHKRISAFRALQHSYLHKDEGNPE
T1 sequence (P24385 whole entry partner): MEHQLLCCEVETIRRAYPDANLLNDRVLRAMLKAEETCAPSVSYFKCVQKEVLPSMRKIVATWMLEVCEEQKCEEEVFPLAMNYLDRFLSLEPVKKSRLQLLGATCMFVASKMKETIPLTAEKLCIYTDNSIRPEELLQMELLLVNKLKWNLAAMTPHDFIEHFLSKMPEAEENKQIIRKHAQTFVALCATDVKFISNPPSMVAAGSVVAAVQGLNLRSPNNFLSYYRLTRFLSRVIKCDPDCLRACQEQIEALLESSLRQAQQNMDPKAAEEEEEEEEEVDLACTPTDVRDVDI

| SMILES | IC50 (CDK4/Cyclin D1) | IC50 (CDK2/Cyclin E2) | IC50 (pRB in OVCAR3 cells) |
| --- | --- | --- | --- |
| CCC12CCCN1C(=O)c1cc(-c3nc(NC4CCN(S(C)(=O)=O)CC4)ncc3F)sc12 (stereo not drawn) [Example 15, 8a-Ethyl-2-[5-fluoro-2-[(1-methylsulfonylpiperidin-4-yl)amino]pyrimidin-4-yl]-7,8-dihydro-6H-thieno[2,3-a]pyrrolizin-4-one] | ≤ 100 nM | ≤ 100 nM | ≤ 100 nM |
| CCC12CC(NC)CN1C(=O)c1cc(-c3nc(N[C@H]4CCN(S(=O)(=O)c5cnn(C)c5)C[C@H]4C)ncc3C(F)(F)F)sc12 (stereo partly drawn) [Example 44, 8a-Ethyl-2-(2-(((3R,4S)-3-methyl-1-((1-methyl-1H-pyrazol-4-yl)sulfonyl)piperidin-4-yl)amino)-5-(trifluoromethyl)pyrimidin-4-yl)-7-(methylamino)-6,7,8,8a-tetrahydro-4H-thieno[2,3-a]pyrrolizin-4-one] | ≤ 100 nM | ≤ 100 nM | ≤ 100 nM |
| CCC12CC(NC)CN1C(=O)c1cc(-c3nc(NC4CCN(S(=O)(=O)c5cnn(C)c5)CC4)ncc3C(F)(F)F)sc12 (stereo not drawn) [Example 49, 8a-Ethyl-2-(2-((1-((1-methyl-1H-pyrazol-4-yl)sulfonyl)piperidin-4-yl)amino)-5-(trifluoromethyl)pyrimidin-4-yl)-7-(methylamino)-6,7,8,8a-tetrahydro-4H-thieno[2,3-a]pyrrolizin-4-one] | ≤ 100 nM | ≤ 100 nM | ≤ 100 nM |
| CCC12CCCN1C(=O)c1cc(-c3nc(NC4CCN(S(C)(=O)=O)CC4)ncc3Cl)sc12 (stereo not drawn) [Example 27, 2-(5-Chloro-2-((1-(methylsulfonyl)piperidin-4-yl)amino)pyrimidin-4-yl)-8a-ethyl-6,7,8,8a-tetrahydro-4H-thieno[2,3-a]pyrrolizin-4-one] | ≤ 100 nM | ≤ 100 nM | ≤ 100 nM |

More lines, now with the values ahead:

| IC50 (CDK4/Cyclin D1) | IC50 (CDK2/Cyclin E2) | IC50 (pRB in OVCAR3 cells) | SMILES |
| --- | --- | --- | --- |
| ≤ 100 nM | ≤ 100 nM | ≤ 100 nM | CS(=O)(=O)N1CCC(Nc2ncc(C(F)(F)F)c(-c3cc4c(s3)C3(C5CC(O)C5)CCCN3C4=O)n2)CC1 (stereo not drawn) [Example 25, 8a-(3-Hydroxycyclobutyl)-2-(2-((1-(methylsulfonyl)piperidin-4-yl)amino)-5-(trifluoromethyl)pyrimidin-4-yl)-6,7,8,8a-tetrahydro-4H-thieno[2,3-a]pyrrolizin-4-one] |
| ≤ 100 nM | ≤ 100 nM | ≤ 100 nM | CC(C)C12CC(O)CN1C(=O)c1cc(-c3nc(NC4CCN(S(C)(=O)=O)CC4)ncc3C(F)(F)F)sc12 (stereo not drawn) [Example 29, 7-Hydroxy-8a-isopropyl-2-(2-((1-(methylsulfonyl)piperidin-4-yl)amino)-5-(trifluoromethyl)pyrimidin-4-yl)-6,7,8,8a-tetrahydro-4H-thieno[2,3-a]pyrrolizin-4-one] |
| ≤ 100 nM | ≤ 100 nM | ≤ 100 nM | CS(=O)(=O)N1CCC(Nc2ncc(C(F)(F)F)c(-c3cc4c(s3)C3(CCF)CCCN3C4=O)n2)CC1 (stereo not drawn) [Example 19, 8a-(2-Fluoroethyl)-2-(2-((1-(methylsulfonyl)piperidin-4-yl)amino)-5-(trifluoromethyl)pyrimidin-4-yl)-6,7,8,8a-tetrahydro-4H-thieno[2,3-a]pyrrolizin-4-one] |
| ≤ 100 nM | ≤ 100 nM | 100 to 500 nM | CS(=O)(=O)N1CCC(Nc2ncc(C(F)(F)F)c(-c3cc4c(s3)C3(C5CCC5)CCCN3C4=O)n2)CC1 (stereo not drawn) [Example 23, 8a-Cyclobutyl-2-(2-((1-(methylsulfonyl)piperidin-4-yl)amino)-5-(trifluoromethyl)pyrimidin-4-yl)-6,7,8,8a-tetrahydro-4H-thieno[2,3-a]pyrrolizin-4-one] |
| ≤ 100 nM | ≤ 100 nM | ≤ 100 nM | CC(C)C12CC(CO)CN1C(=O)c1cc(-c3nc(NC4CCN(S(C)(=O)=O)CC4)ncc3C(F)(F)F)sc12 (stereo not drawn) [Example 31, 7-(Hydroxymethyl)-8a-isopropyl-2-(2-((1-(methylsulfonyl)piperidin-4-yl)amino)-5-(trifluoromethyl)pyrimidin-4-yl)-6,7,8,8a-tetrahydro-4H-thieno[2,3-a]pyrrolizin-4-one] |
